# Literature values in patent publication US7001904B1, “Guanidine derivatives quinazoline and quinoline for use in the treatment of autoimmune diseases” (AstraZeneca AB, priority 2000, dated 2006).
# Target: EGF RTK (Homo sapiens, UniProt P00533)
# Conditions: Bioorganic & Medicinal Chemistry Letters, 1997, 7, 2723–2728
# Sequence of EGF RTK (P00533 25-1210): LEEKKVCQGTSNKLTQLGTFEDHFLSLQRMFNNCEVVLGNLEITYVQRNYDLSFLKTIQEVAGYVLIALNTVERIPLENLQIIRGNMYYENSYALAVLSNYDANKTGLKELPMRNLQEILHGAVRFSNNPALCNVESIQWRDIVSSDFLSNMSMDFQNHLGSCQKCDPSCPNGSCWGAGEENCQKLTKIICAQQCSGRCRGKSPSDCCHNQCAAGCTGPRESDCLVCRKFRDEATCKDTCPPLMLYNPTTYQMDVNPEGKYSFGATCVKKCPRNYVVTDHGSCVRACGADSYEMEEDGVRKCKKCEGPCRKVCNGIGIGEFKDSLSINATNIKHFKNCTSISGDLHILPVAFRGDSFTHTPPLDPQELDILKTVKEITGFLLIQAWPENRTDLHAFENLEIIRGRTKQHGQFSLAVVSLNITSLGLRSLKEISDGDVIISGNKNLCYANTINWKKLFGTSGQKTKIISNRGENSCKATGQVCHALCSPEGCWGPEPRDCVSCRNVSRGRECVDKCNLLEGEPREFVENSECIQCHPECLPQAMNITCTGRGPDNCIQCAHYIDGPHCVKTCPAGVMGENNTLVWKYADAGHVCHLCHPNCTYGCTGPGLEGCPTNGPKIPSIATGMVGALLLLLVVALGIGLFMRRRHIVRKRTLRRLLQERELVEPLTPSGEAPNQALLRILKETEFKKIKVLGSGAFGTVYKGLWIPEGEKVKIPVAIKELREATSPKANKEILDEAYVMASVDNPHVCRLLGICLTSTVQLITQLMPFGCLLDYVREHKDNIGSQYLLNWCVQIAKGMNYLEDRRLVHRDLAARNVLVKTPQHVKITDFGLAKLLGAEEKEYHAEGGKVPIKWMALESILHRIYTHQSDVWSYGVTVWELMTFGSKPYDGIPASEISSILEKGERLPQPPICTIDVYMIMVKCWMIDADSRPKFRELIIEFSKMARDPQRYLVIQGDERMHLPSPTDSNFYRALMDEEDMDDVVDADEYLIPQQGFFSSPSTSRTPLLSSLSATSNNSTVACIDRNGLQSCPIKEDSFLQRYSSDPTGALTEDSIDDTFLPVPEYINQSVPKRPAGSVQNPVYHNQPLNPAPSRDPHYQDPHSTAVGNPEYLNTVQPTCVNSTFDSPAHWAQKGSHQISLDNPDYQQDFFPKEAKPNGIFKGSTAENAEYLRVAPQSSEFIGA
structure (smiles),measurement,value
"COc1cc2ncnc(NC(=O)Nc3ccccc3)c2cc1OC [1-(6,7-dimethoxyquinazolin-4-yl)-3-phenylurea]",EGF RTK inhibition,inactive
